Laboratory results published in BindingDB's records for doi:10.1111/j.1476-5381.1995.tb13240.x (Smithkline Beecham Pharmaceuticals, 1995).

Experiments:
[1] = biological target: 5-hydroxytryptamine receptor 2B (Rattus norvegicus, UniProt P30994)
[2] = biological target: T1, 5-hydroxytryptamine receptor 2C (Homo sapiens, UniProt P28335)
T1 sequence (P28335 whole entry): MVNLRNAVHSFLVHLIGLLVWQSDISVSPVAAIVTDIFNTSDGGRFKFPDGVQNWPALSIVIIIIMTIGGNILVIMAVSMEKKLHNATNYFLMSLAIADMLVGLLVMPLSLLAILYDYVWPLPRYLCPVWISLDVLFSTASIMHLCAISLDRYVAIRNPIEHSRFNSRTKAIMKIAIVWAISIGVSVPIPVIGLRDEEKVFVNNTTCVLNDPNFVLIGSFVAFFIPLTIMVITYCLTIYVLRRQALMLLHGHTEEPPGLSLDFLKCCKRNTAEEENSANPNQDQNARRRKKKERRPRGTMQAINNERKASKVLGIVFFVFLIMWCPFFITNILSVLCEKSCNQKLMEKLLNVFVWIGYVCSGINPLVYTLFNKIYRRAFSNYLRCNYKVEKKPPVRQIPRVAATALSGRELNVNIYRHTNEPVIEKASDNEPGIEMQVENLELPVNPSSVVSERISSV

[3] = biological target: T2, 5-hydroxytryptamine receptor 2C (Rattus norvegicus, UniProt P08909)
T2 sequence (P08909 whole entry): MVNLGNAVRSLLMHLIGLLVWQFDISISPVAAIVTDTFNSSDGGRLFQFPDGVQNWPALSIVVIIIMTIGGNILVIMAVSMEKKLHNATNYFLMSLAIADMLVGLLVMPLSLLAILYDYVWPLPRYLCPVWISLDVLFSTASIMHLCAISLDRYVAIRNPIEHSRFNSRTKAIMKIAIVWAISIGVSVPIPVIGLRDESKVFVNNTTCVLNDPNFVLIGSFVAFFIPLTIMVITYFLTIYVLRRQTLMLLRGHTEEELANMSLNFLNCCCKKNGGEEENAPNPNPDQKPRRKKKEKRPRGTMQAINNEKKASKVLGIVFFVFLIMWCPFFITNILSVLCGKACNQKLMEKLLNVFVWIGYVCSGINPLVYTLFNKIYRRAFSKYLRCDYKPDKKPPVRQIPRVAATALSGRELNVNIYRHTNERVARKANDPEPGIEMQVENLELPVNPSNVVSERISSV

Chain of 5-hydroxytryptamine receptor 2B (P30994 whole entry): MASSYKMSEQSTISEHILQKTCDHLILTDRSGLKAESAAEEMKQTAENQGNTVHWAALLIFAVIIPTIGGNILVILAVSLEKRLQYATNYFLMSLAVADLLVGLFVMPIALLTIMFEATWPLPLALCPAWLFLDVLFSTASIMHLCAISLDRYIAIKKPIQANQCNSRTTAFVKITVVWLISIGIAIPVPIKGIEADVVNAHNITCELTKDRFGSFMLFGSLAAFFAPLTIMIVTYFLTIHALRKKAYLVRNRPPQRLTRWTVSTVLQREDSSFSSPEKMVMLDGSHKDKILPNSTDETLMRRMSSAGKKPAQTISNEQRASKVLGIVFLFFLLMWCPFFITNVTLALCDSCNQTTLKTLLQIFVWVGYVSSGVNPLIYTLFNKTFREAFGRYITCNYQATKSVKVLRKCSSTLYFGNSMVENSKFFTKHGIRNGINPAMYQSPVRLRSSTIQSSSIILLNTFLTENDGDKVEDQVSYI

Row | SMILES | Ki [1] | Ki [2] | Ki [3]
1 | CC(N)Cc1c[nH]c2ccc(OCc3cccs3)cc12 (stereo not drawn) [NSC_5311036] | 0.0126 µM | 0.316 µM | –
2 | COC(=O)[C@@H]1[C@H]2C[C@H]3c4[nH]c5ccccc5c4CCN3C[C@@H]2CC[C@@H]1O [yohimbic acid methyl ester] | – | – | 5.01 µM
